According to US4115587A, “Fatty acid amides of norfenfluramine and compositions and methods thereof” (A. H. Robins Company, Inc., priority 1976, dated 1978):
Like-named read-outs stand apart in the source and are kept apart here.

Experiments:
[1] = tested on: Serum Triglycerides and Cholesterol; assay: Triton-induced hyperlipidemia test (Table 1); type: in vivo, male Sprague-Dawley rats; conditions: 140 mg/kg p.o.; for % Change Cholesterol / % Change Triglycerides: vs control; for Serum Cholesterol / Serum Triglycerides: ± SD
Experimental: Fasted, male Sprague-Dawley rats weighing 250-350 g were fed ad libitum a commercial lab chow with free access to water. The animals were fasted overnight and administered Triton-WR-1339 (produced by Ruger Chemical Company, Inc., Irvington, New Jersey) as described by Schurr et al.; Lipids 7 68(1972) except the procedure was modified to use the saphenous vein and divided doses of 70 mg/kg. The rats were anesthetized with sodium pentobarbital and terminally bled by heart puncture. Serum was stored at -20° C. until it was analyzed for total cholesterol and triglycerides. Comparison was also made with clofibrate.

[2] = Dietary-induced hyperlipemia test, basal semi-purified diet: liver weight, body weight, food consumption (Table 2); type: in vivo, male Sprague-Dawley rats; conditions: .2% in food
Experimental: (§1) General feeding experiments were conducted on rats to determine the effect of the amides of this invention on serum and liver lipids of animals fed a basal diet and a basal diet supplemented with cholesterol. In addition, the effect of these drugs on serum lipoproteins was studied as well as their effect on body weight, gross feed efficiency, liver weight, appetite and energy utilization with respect to their metabolic size. Male, Sprague-Dawley rats weighing 150-175 g. were housed in cages with raised wire floors in a room kept at a temperature of 24°-26° C. with a 12-hour day and 12-hour night cycle, fed ad libitum a semipurified diet consisting by weight % composition: vitamin-free casein, 20; glucose, 63; hydrogenated coconut oil, 10; GBI Vitamin Fortification Mixture, Cat. #40060 obtained from General Biochemical Company of Chargrin Falls, Ohio, 1; modified salt mix of Williams and Briggs, Cat. #170911 obtained from General Biochemical Company, 4; and cellulose, 2; and watered. The modified salt mix provided the following amounts in grams of elements per Kg. of diet:
(§2) Diets were supplemented with 0.5% cholic acid, 1% cholesterol, and drug at the expense of glucose. The experimental period was 18-21 days with body weight and food measured at specified intervals. Animals were fasted overnight and terminally bled by cardiac puncture. Blood was anti-coagulated with ethylenediamine tetracetic acid and plasma was separated by centrifugation, and stored at -20° C. Livers were excised, weighed, and stored at -20° C. All samples remained at this temperature until they were analyzed for total lipids, total cholesterol, triglycerides and phospholipids. Gross feed efficiency together with the effect of metabolic size on food intake and the effect of drug on energy utilization were determined.
(§3) Results of testing the mixed amides of Example 5 and reference compounds in rats on a basal diet according to the foregoing procedure for dietary induced hyperlipemia are in Tables 2 and 3.

Serum and Liver Lipids [3] = assay: Dietary-induced hyperlipemia test, basal semi-purified diet: serum and liver lipids (Table 3); type: in vivo, male Sprague-Dawley rats; conditions: .2% in food, ± S.D.
Experimental: as §1, §2, §3

[4] = type: in vivo, male Sprague-Dawley rats; conditions: cholesterol diet, .2% in food
Experimental: as §1, §2
(§4) Results of testing the mixed amides of Example 5 an reference compounds in rats on a basal diet with added cholesterol according to the foregoing procedure for dietary induced hyperlipemia are in Tables 4 and 5.

Serum and Liver Lipids [5] = assay: Dietary-induced hyperlipemia test, basal diet with cholesterol: serum and liver lipids (Table 5); type: in vivo, male Sprague-Dawley rats; conditions: .2% in food, ± S.D.
Experimental: as §1, §2, §4

Serum Lipoproteins = assay: Serum lipoproteins of rats fed semi-purified diet supplemented with cholesterol (Table 7); type: in vivo; conditions: .2% in food
Experimental: as §1, §2
^a VLDL, very low density lipoproteins; LDL, low density lipoproteins
and HDL, high density lipoproteins as determined on a Beckman-Gilford

[6] = tested on: β-Sterol Synthesis, Liver; assay: β-Sterol synthesis, acetate-1-14C incorporation, liver (Table 8); type: in vivo, male Sprague-Dawley rats; conditions: Liver; 140 mg/kg p.o.; ± S.D.
Experimental: (§5) The effect of the mixed amides of Example 5 and reference compounds on β Sterol synthesis was determined by a modified procedure of Hill and Dvornik Arch. Biochem. Biophys. 114 (1966), 88. Male Sprague-Dawley rates weighing 127-175 g. were freely provided a basal semi-purified diet and water. The rats were housed in cages with raised wire floors in a room kept at a temperature of 24°-26° C. with a 12-hour day-12-hour night cycle. The cycle was reversed so the night cycle corresponded to the working day to take advantage of the circadian rhythm that favors cholesterol synthesis. The test period was five days and 20 μCi sodium acetate-1-^14 C (Sp. act. 56 mCi/m mole) administered intraperitoneally. Animals were sacrificed under carbon dioxide and the distal 10 cm of the ileum as well as the median and left liver lobes excised and homogenized. Subsequently, the β Sterols were isolated as the digitonide and the radioactivity determined in a Packard Tricarb Liquid Scintillation Spectrometer Model 3385 using 0.5% 2,5 diphenyloxazole and 8% naphthalene in a solvent mixture of 40% toluene, 40% dioxane and 20% absolute ethanol. Data for the effect of the mixed amides of Example 5 on the synthesis of nonsaponifiable substances and β Sterols as determined by the Digitonide method are shown in Table 8. […] A prior art compound, α-methylbenzyllinoleamide at 140 mg/kg, p.o. had no effect on cholesterol synthesis in either tissue.

[7] = tested on: β-Sterol Synthesis, Ileum; assay: β-Sterol synthesis, acetate-1-14C incorporation, ileum (Table 8); type: in vivo, male Sprague-Dawley rats; conditions: Ileum; 140 mg/kg p.o.; ± S.D.
Experimental: as §5

## CCOC(=O)C(C)(C)Oc1ccc(Cl)cc1 [Clofibrate, ethyl p-chlorophenoxyisobutyrate]
[1]; Test Group I
  % Change Cholesterol: -24.0%
  % Change Triglycerides: -79%
  Serum Cholesterol: 173.0 ± 54.0 mg/100 ml
  Serum Triglycerides: 124.5 ± 7.8 mg/100 ml
[1]; Test Group II
  % Change Cholesterol: -24%
  Serum Cholesterol: 94.1 ± 13.6 mg/100 ml
[1]; Test Group III
  % Change Triglycerides: -20%
  Serum Cholesterol: 109.3 ± 24.4 mg/100 ml
  Serum Triglycerides: 132.7 ± 64.5 mg/100 ml
[1]; Test Group IV
  % Change Cholesterol: -24%
  % Change Triglycerides: -34%
  Serum Cholesterol: 213.0 ± 14.1 mg/100 ml
  Serum Triglycerides: 411.7 ± 118.0 mg/100 ml
[2]
  Food Consumed: 306 g
[2]; gross weight gain in grams/total food consumed in grams
  Gross Feed Efficiency: .180
[2]; ± S.D.
  Body wt, Final: 210 ± 21 g
  Liver wt per 100 g body wt.: 4.4 ± .4 g
  Liver wt, Total: 9.2 ± .4 g
Serum and Liver Lipids [3]
  Liver Cholesterol: 2.63 ± .09 mg/g
  Liver Lipids, Total: 51.21 ± 7.89 mg/g
  Liver Triglycerides: 1.78 ± .43 mg/g
  Serum Cholesterol: 89.83 ± 8.77 mg/100 ml
  Serum Lipids, Total: 143.70 ± 22.42 mg/100 ml
  Serum Triglycerides: 31.83 ± 7.08 mg/100 ml
[4]
  Food Consumed: 340 g
[4]; gross weight gain/total food consumed in grams
  Gross Feed Efficiency: .215
[4]; ± S.D.
  Body wt, Final: 208 ± 16 g
  Liver wt per 100 g body wt.: 4.9 ± 1.2 g
  Liver wt, Total: 10.4 ± 2.6 g
Serum and Liver Lipids [5]
  Liver Triglycerides: 7.83 ± 2.22 mg/g
Serum and Liver Lipids [5]; p<.05 for Ex. 5
  Serum Cholesterol: 235.00 ± 68.27 mg/100 ml
Serum and Liver Lipids [5]; p<.05 for all
  Liver Cholesterol: 14.17 ± 9.10 mg/g
  Liver Lipids, Total: 93.83 ± 12.06 mg/g
  Serum Lipids, Total: 430.33 ± 119.37 mg/100 ml
Serum and Liver Lipids [5]; p<.05 for clofibrate
  Serum Triglycerides: 126.50 ± 47.21 mg/100 ml
Serum Lipoproteins
  Albumin, Percentage Composition: 22.63%
  HDL, Percentage Composition: 9.03%
  LDL, Percentage Composition: 42.56%
  VLDL, Percentage Composition: 25.76%
[6]
  Acetate-1-14C incorporated, Digitonide: 1.588 ± 1.216 n moles/g tissue
  Acetate-1-14C incorporated, Non-saponifiable: 2.943 ± 1.707 n moles/g tissue
[7]
  Acetate-1-14C incorporated, Digitonide: 6.098 ± .909 n moles/g tissue
  Acetate-1-14C incorporated, Non-saponifiable: 6.774 ± 1.447 n moles/g tissue

## CCCCCCCC/C=C\CCCCCCCC(=O)NC(C)Cc1cccc(C(F)(F)F)c1 (stereo not drawn) [Ex.2, N-[1-methyl-2-(3-trifluoromethylphenyl)ethyl]octadec-9-enamide cis isomer]
[1]; Test Group IV
  % Change Cholesterol: -39%
  % Change Triglycerides: -73%
  Serum Cholesterol: 173.3 ± 10.2 mg/100 ml
  Serum Triglycerides: 166.3 ± 37.2 mg/100 ml

## CCCCCCCC/C=C/CCCCCCCC(=O)NC(C)Cc1cccc(C(F)(F)F)c1 (stereo not drawn) [Ex.3, N-[1-methyl-2-(3-trifluoromethylphenyl)ethyl]octadec-9-enamide trans isomer]
[1]; Test Group IV
  % Change Cholesterol: -25%
  % Change Triglycerides: -58%
  Serum Cholesterol: 210.0 ± 47.8 mg/100 ml
  Serum Triglycerides: 260.0 ± 137.8 mg/100 ml
